In patent US6875758B2, “Method of treating hyperlipidemic and hyperglycemic conditions in mammals using pregnadienols and pregnadienones” (Council of Scientific & Industrial Research, priority 1999, dated 2005):
Where “and” joins values, the source holds several entries; their conditions need not be identical. Equal entries are not always repeated.

What was measured:
Triton treated rats = assay: Cholesterol lowering in Triton treated rats; assay type: in vivo, Charles Foster rats; settings: Rattus norvegicus, ip; 50 mg/kg i.p.; read-out: % Change S. Chol.
Description: The primary hypolipidemic effect of these compounds was established in triton induced hyperlipidemia in Charles Foster rats. […] The cholesterol lowering effect of some representative compounds of pregrenadienols and pregrenadienones as compared to clofibrate and gugulsterone in triton treated Charles Foster rats is described in Table-2.

[1] = system: hyperlipidemic male albino rabbits; assay: Hypolipidemic activity in cholesterol fed hyperlipidemic rabbits (90 days); assay type: in vivo
Protocol: Effect of 3β-Hydroxypregna-5,16-dien-20-one (2) was studied on hypercholesterolemic albino rabbits. Twelve male albino rabbits (approx 1.5-2 kg) on a stock diet were made hyperlipidemic by feeding daily cholesterol 0.5 g/kg in 2 ml of groundnut oil for 45 days and then blood was drawn from the marginal vein in the ear of rabbits for serum cholesterol and triglycerides estimation.
Two controlled experiments were carried out for a period of three months. In one set of experiments, the control group received 0.5 g/kg of cholesterol for 90 days and 3β-Hydroxypregna-5,16-dien-20-one (2) in dose of 100 mg/kg and 50 mg/kg while in control group (given only cholesterol) a massive rise of serum cholesterol and triglycerides were seen after 90 days, the addition of 3β-Hydroxypregna-5,16dien-20-one (2) at 50 and 100 mg/kg doses kept the rise well under control. The percentage decrease at 100 mg dose was 28% at 30 days to 52% at 90 days for cholesterol and 45 to 81% for triglycerides. In the 50 mg/kg dose group the decrease percentage ranged from 40% at 30 days to 50% at 90 days for cholesterol and 45% at 30 days to 75% at 90 days for triglyceride (Table6)

Human serum LDL = assay: Cu2+ induced oxidation of low density lipoprotein (TBA reactive lipid peroxides); assay type: biochemical; settings: for MDA (Exp.): 16 hr at 37° C., pH 7.4
Protocol: Human serum LDL was oxidized with Cu^′2 in different concentrations of test compound in 0.05 mole PBS, pH 7.4 for 16 hr at 37° C. Thiobarbituric acid reactive lipid peroxides are measured by standard procedure. […] Cu^′2 induced oxidation in LDL lipids are mainly due to the free OH radical during incubation.

[2] = system: endometrial proliferation; assay: Clauberg assay, endometrial proliferation on McPhail scale; assay type: in vivo; settings: 200 mg/kg dose
Protocol: The progestational activity was also tested in vivo by Clauberg assay method. The degree of endometrial proliferation was estimated on the McPhail scale where 3′ or 4′ was considered as a full progestational effect.

[3] = system: hyperlipidemic rats (high fat diet); assay: Hypolipidemic activity in diet induced hyperlipidemic rats; assay type: in vivo; settings: for LDL-Cholesterol: calculated
Protocol: Twenty three normal male rats average weight 110-120 g were taken for study and were divided into four groups. Group l: animals received special diet and 3β-hydroxypregna-5,16-dien-20-one (2) 50 mg/kg p.o. in 1% gum acacia. Group II: animals received 3β-hydroxypregna-5,16-dien-20-one (2), 100 mg/kg p.o. in 1% gum acacia and special diet. Group III: animals received special fat diet and 1% gum acacia and served as control. Group IV: animals were fed with stock diet and served as normal control. All animals were sacrificed at the end of 36 days. Blood was drawn from the tail at 10 days and from the aorta at the time of sacrifice for estimation of serum cholesterol, triglycerides and HDL-cholesterol. LDL-cholesterol was calculated as described. [Roschlau, P. In: Methods of Enzymatic Analysis 4th ed., H. U. Bergmeyer, Ed (Academic Press, New York) 1975 p 1890; Wahlefield, W. A. In: Methods of Enzymatic Analysis, 4th ed.; H. U. Bergmeyer, Ed. (Academic Press, New York) 1974 p 1831.]

[4] = 50 mg/kg + cholesterol 0.5 g/kg, day 30
[5] = 50 mg/kg + cholesterol 0.5 g/kg, day 60
[6] = 50 mg/kg + cholesterol 0.5 g/kg, day 90
[7] = 100 mg/kg + cholesterol 0.5 g/kg, day 30
[8] = 100 mg/kg + cholesterol 0.5 g/kg, day 60
[9] = 100 mg/kg + cholesterol 0.5 g/kg, day 90

Structure (SMILES): CC(=O)C1=CC[C@H]2[C@@H]3CC=C4C[C@@H](O)CC[C@]4(C)[C@H]3CC[C@]12C [Compound 2, 3β-Hydroxypregna-5,16-dien-20-one]
- change in vivo at 50 mg/kg (Triton treated rats): -46%
- S. Cholesterol [1, 4]: 190.5 mg %
- S. Triglycerides [1, 4]: 79.5 mg %
- S. Cholesterol [1, 5]: 305.5 mg %
- S. Triglycerides [1, 5]: 67.0 mg %
- S. Cholesterol [1, 6]: 660.3 mg %
- S. Triglycerides [1, 6]: 56.5 mg %
- S. Cholesterol % Decrease vs cholesterol control ([1]; 50 mg/kg, day 30): 40%
- S. Triglycerides % Decrease vs cholesterol control ([1]; 50 mg/kg, day 30): 45%
- S. Cholesterol % Decrease vs cholesterol control ([1]; 50 mg/kg, day 60): 43%
- S. Triglycerides % Decrease vs cholesterol control ([1]; 50 mg/kg, day 60): 64%
- S. Cholesterol % Decrease vs cholesterol control ([1]; 50 mg/kg, day 90): 50% and 51%
- S. Triglycerides % Decrease vs cholesterol control ([1]; 50 mg/kg, day 90): 75% and 76%
- S. Cholesterol [1, 7]: 213.3 mg %
- S. Triglycerides [1, 7]: 79.0 mg %
- S. Cholesterol [1, 8]: 309.3 mg %
- S. Triglycerides [1, 8]: 54.0 mg %
- S. Cholesterol [1, 9]: 633.7 mg %
- S. Triglycerides [1, 9]: 44.2 mg %
- S. Cholesterol % Decrease vs cholesterol control ([1]; 100 mg/kg, day 30): 28%
- S. Triglycerides % Decrease vs cholesterol control ([1]; 100 mg/kg, day 30): 45% and 46%
- S. Cholesterol % Decrease vs cholesterol control ([1]; 100 mg/kg, day 60): 42%
- S. Triglycerides % Decrease vs cholesterol control ([1]; 100 mg/kg, day 60): 64%
- S. Cholesterol % Decrease vs cholesterol control ([1]; 100 mg/kg, day 90): 52% and 53%
- S. Triglycerides % Decrease vs cholesterol control ([1]; 100 mg/kg, day 90): 81%
- % inhibition of LDL oxidation (Human serum LDL; 2.5 μmol/ml): (26) %
- MDA (Exp.) (Human serum LDL; 2.5 μmol/ml): 41.4 ± 1.7 n mol MDA/mg protein
- % inhibition of LDL oxidation (Human serum LDL; 5.0 μmol/ml): (49) %
- MDA (Exp.) (Human serum LDL; 5.0 μmol/ml): 28.7 ± 4.0 n mol MDA/mg protein
- % inhibition of LDL oxidation (Human serum LDL; 10.0 μmol/ml): (74) %
- MDA (Exp.) (Human serum LDL; 10.0 μmol/ml): 10.6 ± 0.5 n mol MDA/mg protein
- % inhibition of LDL oxidation (Human serum LDL; 20 μmol/ml): (89) %
- MDA (Exp.) (Human serum LDL; 20 μmol/ml): 4.0 ± 0.5 n mol MDA/mg protein
- generation of LDL lipid peroxide (in words) (Human serum LDL; tested concentrations): inhibit the generation of LDL lipid peroxide in concentration dependent manner
- progestational activity [2]: did not exhibit any activity
- HDL-Cholesterol ([3]; 50 mg/kg + HFD, Day 0): 34.8 ± 5.8 mg %
- LDL-Cholesterol ([3]; 50 mg/kg + HFD, Day 0): 24.5 ± 14.2 mg %
- HDL-Cholesterol ([3]; 50 mg/kg + HFD, Day 36): 37.57 ± 2.8 mg %
- HDL-Cholesterol % Change ([3]; 50 mg/kg + HFD, Day 36): 181%
- LDL-Cholesterol ([3]; 50 mg/kg + HFD, Day 36): 123.87 ± 14.0 mg %
- Serum Cholesterol ([3]; 50 mg/kg p.o. + HFD, day 0): 69.1 ± 9.9 mg %
- Serum Triglycerides ([3]; 50 mg/kg p.o. + HFD, day 0): 48.8 ± 7.0 mg %
- Serum Cholesterol ([3]; 50 mg/kg p.o. + HFD, day 10): 212.4 ± 23.8 mg %
- Serum Cholesterol % Decrease (compared to group III, HFD) ([3]; 50 mg/kg p.o. + HFD, day 10): 16%
- Serum Cholesterol ([3]; 50 mg/kg p.o. + HFD, day 36): 165 ± 26.7 mg %
- Serum Cholesterol % Decrease (compared to group III, HFD) ([3]; 50 mg/kg p.o. + HFD, day 36): 31%
- Serum Triglycerides ([3]; 50 mg/kg p.o. + HFD, day 36): 61.5 ± 10.5 mg %
- Serum Triglycerides % Decrease (compared to group III, HFD) ([3]; 50 mg/kg p.o. + HFD, day 36): 55%
- HDL-Cholesterol ([3]; 100 mg/kg + HFD, Day 0): 43.4 ± 8.3 mg %
- LDL-Cholesterol ([3]; 100 mg/kg + HFD, Day 0): 10.02 ± 8.5 mg %
- HDL-Cholesterol ([3]; 100 mg/kg + HFD, Day 36): 47.2 ± 3.7 mg %
- HDL-Cholesterol % Change ([3]; 100 mg/kg + HFD, Day 36): 161%
- LDL-Cholesterol ([3]; 100 mg/kg + HFD, Day 36): 48.64 ± 5.1 mg %
- Serum Cholesterol ([3]; 100 mg/kg p.o. + HFD, day 0): 60.8 ± 10.3 mg %
- Serum Triglycerides ([3]; 100 mg/kg p.o. + HFD, day 0): 50 ± 7.1 mg %
- Serum Cholesterol ([3]; 100 mg/kg p.o. + HFD, day 10): 145.5 ± 10.6 mg %
- Serum Cholesterol % Decrease (compared to group III, HFD) ([3]; 100 mg/kg p.o. + HFD, day 10): 48%
- Serum Cholesterol ([3]; 100 mg/kg p.o. + HFD, day 36): 106.4 ± 4.6 mg %
- Serum Cholesterol % Decrease (compared to group III, HFD) ([3]; 100 mg/kg p.o. + HFD, day 36): 59%
- Serum Triglycerides ([3]; 100 mg/kg p.o. + HFD, day 36): 53.0 ± 7.5 mg %
- Serum Triglycerides % Decrease (compared to group III, HFD) ([3]; 100 mg/kg p.o. + HFD, day 36): 62%
